Experimental findings from paper PMC10552397 (Cell Communication and Signaling : CCS, 2023) are described below.

In assay [1] the target is T1, EFEMP1 (Homo sapiens, UniProt Q12805).
T1 construct: endogenous in cells; host or cells: HeLa wt cells
T1 sequence (Q12805 18-493): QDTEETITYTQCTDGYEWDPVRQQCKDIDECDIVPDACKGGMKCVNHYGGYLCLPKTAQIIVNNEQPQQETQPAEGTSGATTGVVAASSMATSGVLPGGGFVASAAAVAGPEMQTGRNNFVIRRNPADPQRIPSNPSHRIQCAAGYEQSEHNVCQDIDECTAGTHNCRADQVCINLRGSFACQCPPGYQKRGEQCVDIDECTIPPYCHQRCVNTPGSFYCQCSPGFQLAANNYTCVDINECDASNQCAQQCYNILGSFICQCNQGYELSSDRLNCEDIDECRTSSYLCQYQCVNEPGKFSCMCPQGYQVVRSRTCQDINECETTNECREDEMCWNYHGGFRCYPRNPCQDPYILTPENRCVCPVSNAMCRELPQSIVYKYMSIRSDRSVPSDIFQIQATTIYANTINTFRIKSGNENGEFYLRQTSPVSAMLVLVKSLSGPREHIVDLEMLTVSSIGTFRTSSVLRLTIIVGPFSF
In words: TPP-TR/RTSA, EFEMP1. The format is binding. The method, then:
(§1) TPP was performed essentially as described, but with major modifications to the TMT labeling sets and statistical data analysis for TPP-TR.
(§2) Adherent cells were washed in the dish once with DPBS and harvested by Trypsin–EDTA (0.25%, Thermo Fisher Scientific, Waltham, MA, USA, #25,200,056) treatment. […]
(§3) After temperature treatment, samples were supplemented with lysis buffer (final concentrations: 0.36 U/µL benzonase, 1.5 mM MgCl2, 1 mM Na3VO4, 10 mM NaF, 2.5 mM Na4P2O7, 0.8% w/v NP-40) for 1 h on ice. […] The total protein concentration of the resulting cell extracts containing the fraction of soluble, non-denatured proteins was determined (Pierce 660 nm Protein Assay, BSA as standard). […] The two (37 °C or 50 °C) x ten (concentrations) x three (replicates) = 60 TPP-CCR samples and two (treatment and control) x ten (temperatures) x three (replicates) = 60 TPP-TR samples were analyzed by LC–MS/MS. GRASP55 was additionally quantified from the TPP-TR samples by immunoblotting as described in the respective section.
(§4) For TPP-CCR, SP3 was performed as described with slight modifications to the original protocol using on average 5 µg total protein per sample and resulting in theoretically 5 µg peptides in 22 µL 50 mM triethylammonium bicarbonate per sample. […] This volume was calculated such that the lowest two temperature samples (36.5 °C and 41.2 °C) contained 10 µg total protein on average. […]

Assay [2] has as its target GRASP55 (Homo sapiens, UniProt Q9H8Y8). In words: Thermal proteome profiling temperature range (TPP-TR/RTSA), GRASP55. Format: binding. Particulars: 100 nM, 6 h. Details: endogenous in cells; host or cells: HeLa wt cells. The method, then:
as §1, §2, §3, §4

Assay [3] relates to HeLa wt cells. In words: Transmission electron microscopy of Golgi apparatus, HeLa wt. Particulars: 24 h. Format: cell-based. Here is the method:
HeLa wt and HeLa GRASP55 KO cells were seeded into 10 cm dishes. […] After treatment, cells were washed with Dulbecco´s phosphate-buffered saline (DPBS, Thermo Fisher Scientific, Waltham, MA, USA, #14,190,250) and then fixed using 2.5% glutaraldehyde and 4% paraformaldehyde in 0.1 M sodium cacodylate, pH 7.4 overnight at 4 °C. Then, cells were harvested with a cell scraper and centrifuged at 4,000 × g for 5 min. Cell pellets were washed twice with 0.1 M sodium cacodylate buffer, pH 7.2, then heated to 40 °C and embedded into 3% low melting agarose. The agarose was dissolved at 40 °C in a water bath and after aspiration of the supernatant a volume of approximately 10 µL was left, which was resuspended in agarose. After centrifugation at approximately 4,000 x g for 2 min, the samples were covered with 1% OsO4 in 0.1 M sodium cacodylate buffer for 60 min at RT. After washing two times with sodium cacodylate buffer for 10 min and twice with 70% EtOH for 15 min at RT, block contrast was applied using 1% uranyl acetate/1% phosphorotungstic acid in 70% EtOH (freshly prepared and filtered) for 1 h at RT. The samples were dehydrated in a graded ethanol series (90% EtOH, 96% EtOH, 100% EtOH) and embedded in SPURR epoxy resin (Serva, Heidelberg, Germany, #21,050). After polymerization at 70 °C for 24 h, 70 nm ultrathin sections were cut using an Ultracut EM UC7 (Leica, Wetzlar, Germany). […]

On to `CCCCCC1=C/C(=C/c2[nH]c(-c3ccc[nH]3)cc2OC)N=C1C` [Prodigiosin, prodigiosin], for which the ΔTm at 0.1 µM in assay [1] (100 nM vs DMSO, 6 h, HeLa wt, read-out: Mean_dTm) turned out to be 1.55 °C. This compound also had a distancescore in assay [1] (RTSA distance score) of 13.326. Moreover, the “mean melting point difference of GRASP55 (TPP-TR)” value in assay [2] (HeLa wt, vs DMSO) is 2.1 °C. Further, in assay [2] (intensities at 36.5 °C), the “effect on GRASP55 abundance” value is reported as “No effect”. In addition, the “Golgi apparatus morphology (TEM)” value was “cisternae number and length decreased and cisternae were more voluminous” in assay [3] (10 nM); “distinct swelling of the Golgi apparatus” in assay [3] (100 nM).
